In article PMC8579695, “The Stringent Response Inhibits 70S Ribosome Formation in Staphylococcus aureus by Impeding GTPase-Ribosome Interactions” (mBio, 2021):

Tests used:
Era = Era (Staphylococcus aureus, UniProt Q2FGF6); experiment: DRaCALA binding of 32P-labeled nucleotides to 6×His-tagged Era; conditions: for Bmax, Era: mean ± SEM, Bmax values indicate the fraction bound
Protocol: (§1) The RA-GTPases RsgA, Era, RbgA, and HflX can bind to the guanosine nucleotides GTP, GDP, ppGpp, and pppGpp. Our previous work observed higher binding affinities for ppGpp over GTP, pointing toward a difference in binding between 5′ di- or triphosphate nucleotides ([27]). […] Furthermore, these previous experiments were performed using recombinant proteins fused to large MBP tags, which could impact binding affinity determination. To examine the nucleotide binding affinities of these RA-GTPases for GDP in comparison to ppGpp, pppGpp, and GTP, and in the absence of a large tag, we used a differential radial capillary action of ligand assay (DRaCALA) with recombinant RsgA, RbgA, Era, and HflX fused to a smaller 6× His tag (Fig. 1B; see also Fig. S2A to C in the supplemental material) ([36]). In each case, the affinities of 5′ diphosphate-containing GDP and ppGpp were similar in the low μM range and were 2- to 6-fold higher than the affinities of either GTP or pppGpp (Table 1).
(§2) Supplementary file : FIG S2 Examination of the binding of GDP, ppGpp, GTP, and pppGpp to RA-GTPases by DRaCALA. (A to C) Determination of binding affinities and Kd values for ^32P-labeled nucleotides to purified recombinant 6×His-tagged RsgA (A), Era (B), and HflX (C). Kd values were determined from the binding curves as previously described ([36]). (D to F) DRaCALA binding assay of recombinant RsgA (D), Era (E), and HflX (F) binding to ^32P-labeled GTP, ppGpp, and pppGpp in the presence or absence of 100 μM cold competitors (GTP, GDP, ppGpp, pppGpp, and ATP). All experiments were carried out in triplicate, with error bars representing standard deviations. Download FIG S2, TIF file, 0.9 MB.
(§3) The synthesis of (p)ppGpp and differential radial capillary action of ligand assay (DRaCALA) binding and competition assays were performed as described previously ([27]), using recombinant, 6×His-tagged protein at the concentrations specified in the figure legends.

RbgA = RbgA (Staphylococcus aureus, UniProt A0A0H2XK72); experiment: DRaCALA binding of 32P-labeled nucleotides to 6×His-tagged RbgA; conditions: for Bmax, RbgA: mean ± SEM, Bmax values indicate the fraction bound
Text: FIG 1 Nucleotide binding characteristics of RA-GTPases. (A) Schematic representation of the domain structure of Era, RsgA, RbgA, and HflX from S. aureus. The conserved GTPase domain (G domain) is colored in green, and accessory domains are shown. (B) Determination of binding affinities and Kd values for ^32P-labeled GTP, GDP, ppGpp, and pppGpp with purified recombinant 6×His-tagged RbgA using DRaCALA, as previously described ([36]). Each point is the mean average of at least three technical replicates, and error bars indicate standard deviations. (C) Binding assay (DRaCALA) of recombinant RbgA binding to ^32P-labeled GTP, ppGpp, and pppGpp in the presence of an excess of cold competitor (GTP, GDP, ppGpp, pppGpp, or ATP). All experiments were carried out in triplicate, with error bars representing standard deviations.
as §1, §3

RsgA = RsgA (Staphylococcus aureus, UniProt P67682); experiment: DRaCALA binding of 32P-labeled nucleotides to 6×His-tagged RsgA; conditions: for Bmax, RsgA: mean ± SEM, Bmax values indicate the fraction bound
Protocol: as §1, §2, §3

HflX = HflX (Staphylococcus aureus, UniProt Q2FYY9); experiment: DRaCALA binding of 32P-labeled nucleotides to 6×His-tagged HflX; conditions: for Bmax, HflX: mean ± SEM, Bmax values indicate the fraction bound
Protocol: as §1, §2, §3

[1] = system: HflX binding to 50S ribosomes; experiment: Stopped-flow fluorescence kinetics of HflX-Atto488 association to 50S subunits; parameters: species or system Staphylococcus aureus
Protocol: FIG 3 Stopped-flow kinetic parameters of RA-GTPase association to the ribosomal subunits. (A) Schematic representation of the experimental setup for stopped-flow analysis. Nucleotides (brown circles), 50S subunits (orange oval), and Atto488-labeled RA-GTPases (purple hexagon) are indicated. Arrows indicate the direction of syringe movement. Atto-488 was excited using a 470-nm LED, and fluorescence was detected through a 515-nm long-pass filter. (B and C) Fluorescent change upon mixing 0.2 μM RbgA-Atto488 (B) or HflX-Atto488 (C) with 0.2 μM 50S ribosomal subunits in the presence of 100 μM GTP, ppGpp, and pppGpp or in the apo state using the stopped-flow fluorescence apparatus. Fluorescently labeled protein was also mixed with buffer lacking 50S subunits as a mixing control. Fluorescence of the reaction was tracked using exponential sampling for 10 s, and each curve represents the mean average of at least five technical replicates. (D) kapp1 dependence on 50S concentration for HflX complexed with GTP (green), ppGpp (pink), and pppGpp (black). (E) Same as for panel D for the kapp2 dependence. (F and G) Sum and product analyses of apparent rates during HflX association to the 50S subunit. HflX-Atto488 (0.05 μM) was mixed with increasing titrations of 50S ribosomal subunits over the fluorescently labeled protein in the presence of 20 μM GTP or ppGpp. The resultant traces (see Fig. S4) were analyzed by nonlinear regression using two exponential terms. The sum (F) and product (G) of apparent rates (kapp1 [D] and kapp2 [E]) were plotted as a function of the total concentration of the 50S subunits and HflX protein to determine the microscopic constants k1, k-1, k2, and k-2 (Table 2) and the resulting dissociation constant (Kd) (see Materials and Methods). Error bars represent the standard deviations of the apparent rates of four or more individual traces (D and E) or the standard errors of the two-step analysis (F and G).
Next, we used a constant concentration of protein in the presence of 200-fold excess of each nucleotide and titrated it with increasing concentrations of ribosomal subunits (see Fig. S4). […]
For initial controls, 0.2 μM Atto-488-labeled proteins were rapidly mixed with 0.2 μM E. coli 50S ribosomal subunits (purified as described elsewhere) in TAKM7 buffer (25 mM Tris-HCl [pH 7.4], 70 mM ammonium acetate, 30 mM KCl, 7 mM MgCl2) using an SX20 stopped-flow apparatus (Applied Photophysics) in the presence or absence of GTP, ppGpp, and pppGpp. […] Atto-488 was excited using a 470-nm LED and fluorescence was detected through a 515-nm long-pass filter. Reactions were monitored for 10 s, with 1,000 total data points per reaction. Each condition was subject to at least five technical repeats, with curves representing the mean average fluorescence of the technical repeats. […]

[2] = target: Era association to the 30S ribosomal subunit (Staphylococcus aureus, UniProt Q2FGF6); experiment: In vitro ribosome association assay (sucrose gradient, α-His Western immunoblot), Era; format: binding; conditions: 40 μM nucleotide; compared to apo, GTP, or GMPPNP-bound states
Text: (§4) It is well characterized that rRNA transcription decreases during the stringent response ([39]). In addition, the GTPase activity of ribosome assembly cofactors is inhibited by (p)ppGpp, both of which contribute to a reduction in mature ribosomes within the cell ([27]). To examine mechanistically how (p)ppGpp-GTPase interactions affect the ability of RA-GTPases to associate with ribosomal subunits, we examined the association of each GTPase to either the 30S or 50S ribosomal subunit in the presence of GDP, GTP, ppGpp, and pppGpp, as well as GMPPNP, a nonhydrolyzable analogue of GTP. The production and isolation of immature subunits, which can comprise several different immature states, introduces a large degree of heterogeneity, and so here we, and others, use homogenous mature particles as a system to examine the binding event, rather than the role of GTPase activity in downstream maturation ([11], [12], [29], [40], [41]). His-tagged GTPases were preincubated with highly pure, salt-washed 70S S. aureus ribosomes in a low-magnesium buffer to encourage ribosomal subunit dissociation, and the amount of each GTPase associated with each of the subunits was quantified by Western immunoblotting with anti-His antibodies after sucrose gradient separation. […]
(§5) FIG 2 (p)ppGpp and GDP binding reduces RA-GTPase association to the ribosome. […] After subunit separation and precipitation, bound proteins were detected in the 30S fraction using HRP-conjugated α-His antibodies. […] Bound proteins were detected in the 50S fraction using HRP-conjugated α-His antibodies. […]
(§6) A 500 nM concentration of recombinant 6×His-tagged RA-GTPase was incubated at room temperature for 5 min with 200 nM S. aureus 70S ribosomes in dissociation buffer (20 mM Tris [pH 7.5], 120 mM NH4Cl, 1.5 mM MgCl2, 2 mM β-mercaptoethanol) in the apo form and in the presence of 40 μM GTP, GMPPNP, GDP, ppGpp, or pppGpp. […] Gradients were fractionated by upward displacement of 250-μl aliquots, which were analyzed for RNA content at an absorbance of 260 nm. […]

[3] = system: HflX association to the 30S and 50S ribosomal subunits; experiment: In vitro ribosome association assay (sucrose gradient, α-His Western immunoblot), HflX; format: binding, Staphylococcus aureus; conditions: 40 μM nucleotide; compared to apo, GTP, or GMPPNP-bound states
Text: as §4, §5, §6

[4] = system: RA-GTPases RsgA, RbgA, Era, and HflX; experiment: DRaCALA binding and competition assays across the four RA-GTPases; parameters: species or system Staphylococcus aureus; conditions: 100 μM cold competitor
Text: FIG 1 Nucleotide binding characteristics of RA-GTPases. (A) Schematic representation of the domain structure of Era, RsgA, RbgA, and HflX from S. aureus. The conserved GTPase domain (G domain) is colored in green, and accessory domains are shown. (B) Determination of binding affinities and Kd values for ^32P-labeled GTP, GDP, ppGpp, and pppGpp with purified recombinant 6×His-tagged RbgA using DRaCALA, as previously described ([36]). Each point is the mean average of at least three technical replicates, and error bars indicate standard deviations. (C) Binding assay (DRaCALA) of recombinant RbgA binding to ^32P-labeled GTP, ppGpp, and pppGpp in the presence of an excess of cold competitor (GTP, GDP, ppGpp, pppGpp, or ATP). All experiments were carried out in triplicate, with error bars representing standard deviations. […]
Supplementary file : FIG S2 Examination of the binding of GDP, ppGpp, GTP, and pppGpp to RA-GTPases by DRaCALA. […] Kd values were determined from the binding curves as previously described ([36]). […]
Structural data places (p)ppGpp within the GTP-binding site of the RA-GTPase RbgA ([6]), indicating a competitive mode of inhibition. […] Based on our measured affinities (Table 1), we speculate that both GDP and ppGpp will outcompete other nucleotides for occupancy of the binding site. […]

Era, sequence (Q2FGF6 whole entry, the tested form may be a part): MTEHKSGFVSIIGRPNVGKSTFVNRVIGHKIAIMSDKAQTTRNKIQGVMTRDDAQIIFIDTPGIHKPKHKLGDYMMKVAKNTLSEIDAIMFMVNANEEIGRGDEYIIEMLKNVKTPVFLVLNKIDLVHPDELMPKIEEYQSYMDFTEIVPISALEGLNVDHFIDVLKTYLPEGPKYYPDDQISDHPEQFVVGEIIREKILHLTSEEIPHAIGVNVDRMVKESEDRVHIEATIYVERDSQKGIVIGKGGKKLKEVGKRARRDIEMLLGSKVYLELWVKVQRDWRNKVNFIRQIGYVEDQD
RbgA, sequence (A0A0H2XK72 entry or part of it): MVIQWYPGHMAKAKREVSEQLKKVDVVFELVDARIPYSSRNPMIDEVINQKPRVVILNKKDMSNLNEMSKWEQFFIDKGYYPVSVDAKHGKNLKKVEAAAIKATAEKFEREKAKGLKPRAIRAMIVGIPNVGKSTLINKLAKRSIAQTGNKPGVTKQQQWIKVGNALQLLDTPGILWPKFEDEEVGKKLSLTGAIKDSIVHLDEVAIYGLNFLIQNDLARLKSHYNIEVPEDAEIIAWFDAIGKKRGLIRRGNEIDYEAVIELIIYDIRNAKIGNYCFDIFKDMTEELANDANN
HflX, sequence (Q2FYY9 entry or part of it): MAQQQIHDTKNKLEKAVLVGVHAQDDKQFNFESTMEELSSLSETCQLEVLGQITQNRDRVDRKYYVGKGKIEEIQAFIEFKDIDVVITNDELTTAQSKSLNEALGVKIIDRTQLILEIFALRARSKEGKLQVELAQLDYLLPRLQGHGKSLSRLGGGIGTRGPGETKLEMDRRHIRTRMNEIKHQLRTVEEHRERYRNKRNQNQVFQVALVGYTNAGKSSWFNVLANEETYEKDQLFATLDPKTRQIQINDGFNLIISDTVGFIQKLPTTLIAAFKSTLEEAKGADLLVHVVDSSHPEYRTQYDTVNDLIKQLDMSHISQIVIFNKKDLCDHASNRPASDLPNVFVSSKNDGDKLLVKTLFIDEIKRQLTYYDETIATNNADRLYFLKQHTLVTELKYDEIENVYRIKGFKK
RsgA, sequence (P67682 whole entry): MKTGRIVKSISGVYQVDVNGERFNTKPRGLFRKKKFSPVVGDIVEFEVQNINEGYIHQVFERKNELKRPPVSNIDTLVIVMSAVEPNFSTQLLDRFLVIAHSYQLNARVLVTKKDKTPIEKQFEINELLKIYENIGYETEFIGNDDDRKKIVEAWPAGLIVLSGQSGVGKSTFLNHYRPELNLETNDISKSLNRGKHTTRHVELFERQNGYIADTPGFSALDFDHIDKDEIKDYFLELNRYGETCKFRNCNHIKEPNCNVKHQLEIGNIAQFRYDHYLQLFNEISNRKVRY
Era association to the 30S ribosomal subunit, sequence (Q2FGF6 whole entry): as the sequence (Q2FGF6 whole entry, the tested form may be a part) above

Compound	Kd (Era) [µM]	Bmax, Era (Era)	Kd (RbgA) [µM]	Bmax, RbgA (RbgA)	Kd (RsgA) [µM]	Bmax, RsgA (RsgA)	Bmax, HflX (HflX)	kapp2 of HflX association to 50S ([1]; GTP: hyperbolic, plateau, ppGpp: independent of 50S concentration) [s⁻¹]	linear increase in kapp1 of HflX, GTP relative to ppGpp or pppGpp ([1]; dependence on 50S concentration) [fold]	Kd (HflX) [µM]	reduction in ribosome binding of Era [2] [fold]	reduction in ribosome binding of HflX [3] [fold]	competition of cold unlabeled nucleotide with 32P-labeled GTP, ppGpp, pppGpp [4]
Nc1nc2c(ncn2[C@@H]2O[C@H](COP(=O)(O)OP(=O)(O)OP(=O)(O)O)[C@@H](O)[C@H]2O)c(=O)[nH]1 [GTP]	11.5 ± 1.6	0.3 ± 0.0	18.5 ± 5.4	0.4 ± 0.0	3.6 ± 0.4	0.8 ± 0.0	0.7 ± 0.3	~2	2				
Nc1nc2c(ncn2[C@@H]2O[C@H](COP(=O)(O)OP(=O)(O)O)[C@@H](O)[C@H]2O)c(=O)[nH]1 [GDP]	4.9 ± 0.7	0.5 ± 0.0	6.1 ± 1.1	0.5 ± 0.0	1.8 ± 0.2	0.9 ± 0.0	0.7 ± 0.0			4.9 ± 0.7	2	2	competing more effectively
